{"source": "patent US8574834B2", "about": "“Method for predicting the response to a therapy” (Index Pharmaceuticals AB, priority 2007, dated 2013)", "test_system": "Tsp1 gene", "assay": "Tsp1 gene expression in PBMC after 48 hrs stimulation, real-time PCR", "type": "cell-based, human", "conditions": "10^-6 M Dex, normalised to basal expression", "source_text": "FIG. 2 depicts the average value of expression level of Tsp1 gene in PBMC in response to 48 hrs stimulation with IDX0150 alone, Dex alone, or IDX0150 and Dex combination as quantified by real-time PCR. The experimental conditions and data handling were as described in FIG. 1 and Example 1.\nFIG. 5 depicts the average value of expression level of Tsp1 gene in PBMC in response to 48 hrs stimulation with IDX0150 alone, Dex alone, or IDX0150 and Dex combination as quantified by real-time PCR. The experimental conditions and data handling were as described in FIG. 4 and Example 1.\nPeripheral blood mononuclear cells (PMBC) were isolated from blood samples of seven steroid resistant asthma or ulcerative colitis patients and ten healthy volunteers by density gradient centrifugation using Ficoll-Paque Plus (Pharmacia Biotech), washed three times in buffered saline solution (PBS), and resuspended in complete RPMI 1640 (Sigma/Gibco) containing 15% heat inactivated fetal bovine serum (FCS) (Gibco, Life Technologies), 100 U/ml penicillin, 100 μg/ml streptomycin (Life Technologies), 2 mM L-glutamine (Sigma), gentamycin 25 ug/ml (Sigma) and 5 mM Hepes (Gibco, Life Technologies). Cells were counted using 0.4% Trypan blue solution (Sigma Aldrich). On average the yield of PBMC was in range of 60-120×10^6 cells per donor sample. […]"}
{"smiles": "C[C@@H]1C[C@H]2[C@@H]3CCC4=CC(=O)C=C[C@]4(C)[C@@]3(F)[C@@H](O)C[C@]2(C)[C@@]1(O)C(=O)CO", "note": "[dexamethasone]", "values": [{"measurement": "induction of Tsp1", "result": "3-5 fold"}]}
